Assay results from article PMC11898053, “Structure-Based Identification of Non-covalent Prolyl Oligopeptidase 80 Inhibitors Targeting Trypanosoma cruzi Cell Entry” (Journal of Chemical Information and Modeling, 2025).
Like-named read-outs stand apart in the source and are kept apart here.

Experiments:
[1] = biological target: recombinant POPTc80 (Trypanosoma cruzi, UniProt Q4E132); assay: POPTc80 enzyme inhibition and kinetic assay (Suc-GPLGP-AMC fluorogenic substrate); format: biochemical
Experimental: The enzyme activity was assessed using the fluorogenic substrate Suc-GPLGP-AMC previously described by Santana et al.[14] A total of 20 ng of pure recombinant POPTc80 was incubated with 20 μM Suc-GPLGP-AMC in a 25 mM HEPES buffer containing 5 mM DTT at pH 7.5. The release of AMC was monitored over a period of 20 min by measuring its emission at 460 nm, following excitation at 355 nm, using a 96-well microplate fluorescence reader (M5, Molecular Devices). The IC50 values were obtained by a series of at least 9 points from 200 to 0.01 μM of the compound, plus the control. The data were subjected to a four-parameter logistic (4 PL) nonlinear regression model using GraphPad Prism 8 software to calculate the IC50. […] Active enzyme concentration was determined by titration with a chloromethyl ketone irreversible inhibitor of POPTc80.[13] All kinetic parameters were determined by nonlinear regression employing the GraphPad Prism enzyme kinetics module and Hanes-Woolf plots.[64]

[2] = tested on: T. cruzi strain Y trypomastigotes; assay: Host cell infection inhibition assay (trypomastigote entry into L6 cells); format: cell-based, Trypanosoma cruzi; conditions: 1 h preincubation, 3 h infection, 72 h culture
Experimental: The assay was performed as previously described by Grellier et al.,[15] with slight modifications. Briefly, L6 cells were seeded in flasks containing RPMI medium supplemented with 5% fetal bovine serum and 1% penicillin/streptomycin (Gibco 15140122) and incubated at 37 °C in a 5% CO2 atmosphere. Trypomastigotes of T. cruzi strain Y were preincubated for 1 h at 37 °C in a culture medium containing different concentrations of inhibitors (0–200 μM, five points). Subsequently, they were added to L6 cell cultures that had been previously grown for 24h in 96-well plates (1000 cells/well) at a trypomastigote-to-host cell ratio of 30:1. After 3 h incubation at 37 °C, the wells were washed three times with inhibitor-free culture medium, and the cells were maintained for 72 h without inhibitors before fixation and staining with panoptic stain. The percentage of infected cells was determined by counting at least 200 host cells under 400-fold magnification. The inhibition of host cell invasion was calculated by comparing the percentage of infected cells in treated wells to that in untreated control wells. The concentration required to inhibit 50% of invasion (EC50) was determined using a nonlinear regression model applied to dose–response curves in GraphPad Prism v.8.

[3] = Cytotoxicity assay (resazurin); format: cell-based; conditions: rat, L6 cells, pH 7.4; 72 h incubation
Experimental: L6 cells were cultured in 96-well plates at a density of 1 × 10^4 cells/well in 100 μL of RPMI 1640 medium supplemented with 10% heat-inactivated fetal bovine serum (FBS) and 25 mM HEPES pH 7.4, maintained at 37 °C, under a 5% CO2 atmosphere. After 24h, the compounds were diluted, starting at a concentration of 200 μM, in 100 μL of complete culture medium per well. Subsequently, 100 μL of the diluted compounds were added to the seeded cells. After 72 h of incubation, Resazurin solution (Sigma) was added to a final concentration of 20 μM and incubated for another 4h at 37 °C. Fluorescence was then measured at 570 nm (excitation) and 595 nm (emission) using a SpectraMax M5 microplate reader (Molecular Devices, Sunnyvale, CA, USA). The cytotoxic concentrations causing 50% inhibition of cell growth (CC50) were determined from data obtained in two independent experiments and calculated similarly to the EC50, as described above.

[4] = tested on: POPTc80; conditions: cited from earlier work
[5] = tested on: T. cruzi; parameters: method as in PMID 11598112; conditions: phenotypic data; cited from earlier work
[6] = 20 μM Suc-GPLGP-AMC, pH 7.5, means ± SD of three replications, read-out: POPTc80 IC50
[7] = Trypanosoma cruzi, L6, inhibition of host cell invasion
[8] = inhibition of host cell invasion
[9] = four compound and five substrate concentrations, means ± SD of three replications, read-out: POPTc80 Ki

recombinant POPTc80, sequence (Q4E132 entry or part of it): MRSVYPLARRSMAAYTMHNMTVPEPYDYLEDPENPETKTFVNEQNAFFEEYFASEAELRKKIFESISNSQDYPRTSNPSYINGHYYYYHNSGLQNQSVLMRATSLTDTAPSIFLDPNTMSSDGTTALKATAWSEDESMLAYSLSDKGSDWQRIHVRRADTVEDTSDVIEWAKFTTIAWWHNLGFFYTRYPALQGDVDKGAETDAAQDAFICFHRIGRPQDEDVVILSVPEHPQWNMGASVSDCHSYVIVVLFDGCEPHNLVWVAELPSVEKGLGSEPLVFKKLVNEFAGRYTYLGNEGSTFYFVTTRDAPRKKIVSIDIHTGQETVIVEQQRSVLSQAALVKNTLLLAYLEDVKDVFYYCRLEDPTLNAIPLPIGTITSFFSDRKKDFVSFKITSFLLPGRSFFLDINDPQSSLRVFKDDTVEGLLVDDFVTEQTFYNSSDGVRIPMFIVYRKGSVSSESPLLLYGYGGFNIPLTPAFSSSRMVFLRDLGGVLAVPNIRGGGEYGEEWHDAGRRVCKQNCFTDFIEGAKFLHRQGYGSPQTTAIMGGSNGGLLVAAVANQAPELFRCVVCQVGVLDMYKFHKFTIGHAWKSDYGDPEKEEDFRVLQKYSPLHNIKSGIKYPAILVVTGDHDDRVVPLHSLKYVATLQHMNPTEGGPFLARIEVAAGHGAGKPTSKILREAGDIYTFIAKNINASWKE

SMILES	IC50 [1, 6]	EC50 [2, 7]	CC50 at 72 h [3]	POPTc80 LE (ligand efficiency) [1]	also measured
O=C(NCCc1cnn(-c2ccccc2)c1)C1CCCCN1C(=O)C1CC1 (stereo not drawn) [LC-39]	> 20 µM	–	–	–	–
O=C(NCCCc1nc2cc(Cl)ccc2[nH]1)C1CCCCN1C(=O)C1CC1 (stereo not drawn) [LC-40]	> 20 µM	–	–	–	–
O=C(NCCc1nccs1)C1CCCCN1C(=O)C1CC1 (stereo not drawn) [LC-41]	> 20 µM	–	–	–	–
O=C(NCCc1nc2cc(F)ccc2[nH]1)C1CCCCN1C(=O)C1CC1 (stereo not drawn) [LC-42]	> 20 µM	–	–	–	–
O=C(NCCOc1cccc2cccnc12)C1CCCCC1C(=O)N1CCCC1 (stereo not drawn) [LC-44]	0.64 ± 0.1 µM	92.5 µM	> 200 µM	0.33 kcal/mol per heavy atoms	EC50 [2, 8]: 92.4 ± 3.74 µM; Ki [1, 9]: 0.175 ± 0.031 µM
O=C(NCCc1cscn1)C1CCCCC1C(=O)N1CCCC1 (stereo not drawn) [LC-45]	0.23 ± 0.08 µM	46.7 ± 3.55 µM	> 200 µM	0.44 kcal/mol per heavy atoms	Ki [1, 9]: 0.054 ± 0.006 µM
O=C(NCCCc1ccccn1)C1CCCCC1C(=O)N1CCCC1 (stereo not drawn) [LC-46]	0.4 ± 0.24 µM	46.6 ± 20.8 µM	> 200 µM	0.35 kcal/mol per heavy atoms	Ki [1, 9]: 0.513 ± 0.218 µM
Cc1nc2ccc(CNC(=O)C3CCCCC3C(=O)N3CCCC3)cc2[nH]1 (stereo not drawn) [LC-47]	–	–	–	0.30 kcal/mol per heavy atoms	IC50 ([1]; read-out: POPTc80 IC50, 20 μM Suc-GPLGP-AMC, pH 7.5, means ± SD of three replications): 1.21 ± 0.32 µM; Ki ([1]; read-out: POPTc80 Ki, four compound and five substrate concentrations, means ± SD of three replications): 1.99 ± 0.26 µM
O=C(NCCc1cnccn1)C1CCCCC1C(=O)N1CCCC1 (stereo not drawn) [LC-48]	0.95 ± 0.1 µM	–	–	–	–
Cc1csc(SCC(=O)N2CCCC2C(=O)N2CCOCC2)n1 (stereo not drawn) [LC-49]	> 20 µM	–	–	–	–
O=C(C1CCCN1C(=O)NCc1cc2ccccc2s1)N1CCOCC1 (stereo not drawn) [LC-50]	–	80.2 ± 5.27 µM	> 200 µM	0.31 kcal/mol per heavy atoms	IC50 [1]: 0.59 ± 0.19 µM; Ki [1]: 0.44 ± 0.09 µM
Cn1c(CNC(=O)C2CCCCC2C(=O)N2CCCC2)nc2ccccc21 (stereo not drawn) [LC-53]	0.27 ± 0.07 µM	24.9 ± 3.45 µM	> 200 µM	0.35 kcal/mol per heavy atoms	Ki [1, 9]: 0.158 ± 0.044 µM
Cc1cccc(NC(=O)CC(=O)N2CCCC2C(=O)N2CCOCC2)c1 (stereo not drawn) [LC-54]	> 20 µM	–	–	–	–
O=C(C1CCCN1C(=O)CCCc1ccc(Cl)cc1)N1CCOCC1 (stereo not drawn) [LC-55]	0.44 ± 0.08 µM	16.2 µM	> 200 µM	0.35 kcal/mol per heavy atoms	EC50 [2, 8]: 18.6 ± 3.79 µM; Ki [1, 9]: 0.83 ± 0.11 µM
Cc1nn(C)c(C)c1CCC(=O)N1CCCC1C(=O)N1CCCCC1 (stereo not drawn) [LC-56]	> 20 µM	–	–	–	–
O=C(C1CCCN1C(=O)Cn1sc2ccccc2c1=O)N1CCCCC1 (stereo not drawn) [LC-57]	> 20 µM	–	–	–	–
COC(OC)C1CCCN1C(=O)C1CCCN1C(=O)OCc1ccccc1 (stereo not drawn) [ZPPD, Z-P-prolinal dimethylacetal]	–	–	–	0.31 kcal/mol per heavy atoms	IC50 [4]: 6.7 µM; Ki [4]: 1.12 ± 0.12 µM; EC50 [5]: 250 µM
